Consider four molecules from US4585757A, “Hypotensive active peptides” (Texas Tech University Health Sciences Center, priority 1984, dated 1986).

In one experiment the test system is Sprague-Dawley rats. Kind of experiment: rat blood pressure assay. It is filed as in vivo. The following applies: anesthetized rat, mean of 4 replications. On the procedure:
The rat blood pressure assay was conducted as follows: Sprague-Dawley rats of both sexes, weighing between 100 and 200 grams, were anesthetized with sodium pentobarbital and the right carotid artery and jugular vein were cannulated with polyethylene tubing PE50. The hypotensive peptide was administered and blood pressure was recorded in the anesthetized rats as described above for dogs.

Experiment [1] relates to rat tail artery helical strip. The arrangement: dose or concentration left out as unconfirmed. The following applies: strips contracted with arginine vasopressin.
Procedure: Male and female Sprague-Dawley rats were anesthetized with pentobarbital (50 mg/kg) before removal of the tail artery. Upon isolation the artery was placed in ice cold Krebs-Hensleit solution (KHS) which was oxygenated with 95% O2, 5% CO2. The vessels were cut helically and strips of approximately 1.5 cm were secured in a Sawyer-Bartleston chamber containing KHS. The development of force of the helical strips was measured with a Grass FT.03 force displacement transducer and recorded on a Grass Model 79D polygraph. Isolated tail artery helical strips were equilibrated for one hour prior to addition of any peptide. In all cases, the strips were first contracted by adding arginine vasopressin (AVP), to the bath. The peptide being studied was then added to the bath and the degree of relaxation was determined.
The subject of the next experiment is Mongrel dogs. Kind of experiment: dog blood pressure assay. The class given is in vivo. The following applies: dose 3 × 10^-9 moles/kg, mean of 4 replications.

Read-outs that look alike come from different tables or passages of the source. Peptide text beside a SMILES is read from it.

Procedure for Mongrel dogs: The dog blood pressure assay was conducted according to the following method:
Mongrel dogs of either sex weighing between 6-15 kg were anesthetized by intravenous injection of sodium pentobarbital (30 mg/kg). The femoral artery and vein were cannulated for the measurement of blood pressure and the injection of drugs, respectively. Arterial blood pressure was determined with a Statham pressure transducer and was recorded on a Grass polygraph. Mean arterial pressure (MAP) were calculated for the periods before and after each peptide injection. A tracheotomy was performed to insure a patient airway for spontaneous respiration.
Hypotensive screening studies involved injecting each dog with 0.1; 0.5; 1.0; and 2.0 ug/kg. The CIP as supplied by Peninsula Laboratories was in the lyophilyzed form. Prior to injection the CIP was dissolved in saline.

“Thy-Pro-Arg-Lys [Contraceptive tetrapeptide]”: the “Blood Pressure Decrease” value was 2 mmHg in the experiment with Sprague-Dawley rats (dose 100.0 ug/kg); 3 mmHg with Sprague-Dawley rats (dose 200.0 ug/kg); 9 mmHg in the experiment on Sprague-Dawley rats (dose 500.0 ug/kg); 13 mmHg in the experiment on Sprague-Dawley rats (dose 1000.0 ug/kg); 15 mmHg in the experiment with Sprague-Dawley rats (dose 2000.0 ug/kg).

Take `N=C(N)NCCC[C@H](N)C(=O)O` [L Arg, L-arginine]: the Tension change in experiment [1] (dose of 100), in experiment [1] (dose of 200) and in experiment [1] (dose of 500) was 0 gm each time.

With `NC(N)=NCCC[C@H](NC(=O)[C@H](Cc1ccccc1)NC(=O)[C@@H]1CCCN1C(=O)[C@H](CO)NC(=O)[C@H](Cc1ccccc1)NC(=O)CNC(=O)[C@@H]1CCCN1C(=O)[C@@H]1CCCN1C(=O)[C@@H](N)CCCN=C(N)N)C(=O)O` [Bradykinin] (H-RPPGFSPFR-OH), the “Maximum Decrease in Blood Pressure” value with Mongrel dogs is 44 mmHg.

For the molecule `O=C(O)[C@@H]1CCCN1` [L Pro, L-proline], the Tension change in experiment [1] (dose of 100), in experiment [1] (dose of 200) and in experiment [1] (dose of 500) was 0 gm each time.
